Measured values: patent publication US6737383B1, “Herbicidal oxadiazolidines” (priority 1999, dated 2004)

What was measured:
[1] = tested on: bamyardgrass; assay: Test B flood test barnyardgrass; assay type: in vivo, Echinochloa crus-galli
Summary of the method: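 Each value is a visual injury score relative to controls, with 10 meaning complete control and 0 no effect. Evaluation took place twelve to sixteen days after the 2-leaf-stage plants were treated and kept in the greenhouse.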

[2] = tested on: sugar beet; assay: Test B pre/postemergence sugar beet; assay type: in vivo, Beta vulgaris
Summary of the method: (§1)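 Response is a visual 0-to-10 score relative to untreated plants, where 0 means no effect and 10 means complete control, taken twelve to sixteen days after application. Treatments went onto soil at planting and onto foliage of 1- to 4-leaf plants, using a surfactant-containing non-phytotoxic solvent.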

[3] = tested on: surinam grass; assay: Test B pre/postemergence surinam grass; assay type: in vivo, Brachiaria decumbens
Summary of the method: as §1

[4] = tested on: blackgrass; assay: Test B pre/postemergence blackgrass; assay type: in vivo, Alopecurus myosuroides
Summary of the method: as §1

[5] = Postemergence, Rate 125 g/ha, scale of 0 to 10 where 0 is no effect and 10 is complete control
[6] = Postemergence, Rate 1000 g/ha, scale 0 to 10 (0 no effect, 10 complete control)
[7] = Preemergence, Rate 125 g/ha, scale of 0 to 10 where 0 is no effect and 10 is complete control
[8] = Preemergence, Rate 250 g/ha, scale 0 to 10 (0 no effect, 10 complete control)
[9] = Preemergence, Rate 500 g/ha, scale of 0 to 10 where 0 is no effect and 10 is complete control
[10] = Rate 500 g/ha, Postemergence, scale 0 to 10, 0 is no effect, 10 is complete control
[11] = Rate 1000 g/ha, Preemergence, scale 0 to 10 (0 no effect, 10 complete control)
[12] = Postemergence, Rate 250 g/ha, scale of 0 to 10, 0 is no effect, 10 is complete control

COP(=O)(CCn1c(=O)on(C(=O)N(c2ccc(F)cc2)C(C)C)c1=O)OC [Compound 662]
9: Plant response rating, B. signalgrass [3, 11] | Plant response rating, Blackgrass [4, 9] | Plant response rating, Blackgrass [4, 11]
0: Barnyardgrass plant response rating ([1]; Pre-emergence, Rate 1000 g/ha, scale 0 to 10 (0 no effect, 10 complete control)) | Barnyardgrass plant response rating (0 to 10 scale, 0 is no effect, 10 is complete control) ([1]; Rate 125 g/ha, under heading Pre-emergence, flood test species, visual evaluation after twelve to sixteen days) | Barnyardgrass plant response rating ([1]; Rate 250 g/ha, Pre-emergence (flood test species), scale 0 to 10, 0 is no effect, 10 is complete control) | Barnyardgrass plant response rating ([1]; Rate 500 g/ha, Pre-emergence section of Table B, 0 to 10 scale (0 no effect, 10 complete control)) | Sugarbeets plant response rating [2, 5] | Sugarbeets plant response rating [2, 6] | Sugarbeets plant response rating [2, 7] | Plant response rating, Sugarbeets [2, 8] | Plant response rating, Sugarbeets [2, 9] | Sugarbeets plant response rating [2, 10] | Plant response rating, Sugarbeets [2, 11] | Plant response rating, B. signalgrass [3, 5] | B. signalgrass plant response rating [3, 12] | B. signalgrass plant response rating [3, 7] | Blackgrass plant response rating [4, 5] | Blackgrass plant response rating [4, 12]
4: Plant response rating, Blackgrass [4, 8]
3: Plant response rating, B. signalgrass [3, 8] | Blackgrass plant response rating [4, 7] | Blackgrass plant response rating [4, 10]
7: Plant response rating, B. signalgrass [3, 9]
6: Blackgrass plant response rating [4, 6]
2: B. signalgrass plant response rating [3, 6] | B. signalgrass plant response rating [3, 10]
